Results taken from ChEMBL document CHEMBL3885861, “Open TG-GATES”.

Organism: Rattus norvegicus
Test: Open TG-GATES - Regimen: Single
Format: toxicity, organism-based, Sprague-Dawley
Design: regimen Single, gender Male, age 6 weeks
Settings: in vivo, po, 100 mg/kg, route gavage, dose level Middle; for APTT / Bas / Eos / Fbg / Hb / Ht / Lym / MCH / MCHC / MCV / Mono / Neu / PT / Plat / RBC / Ret / WBC: tissue Blood; for KIDNEY_L / KIDNEY_R / KIDNEY_TOTAL: tissue Kidney; for LIVER: tissue Liver; for A/G / ALP / ALT / AST / BUN / CRE / Ca / Cl / DBIL / GLC / IP / K / LDH / Na / PL / RALB / TBIL / TC / TG / TP / gamma-GTP: tissue Plasma

Brc1ccccc1 [BROMOBENZENE]
TERMINAL_BW (3 h): 191 g | APTT (3 h): 16 s | Bas (3 h): 0% | Eos (3 h): 0.6% | Fbg (3 h): 266.6 mg/dL | Hb (3 h): 13.4 g/dL | Ht (3 h): 40.5% | Lym (3 h): 79.2% | MCH (3 h): 21.4 pg | MCHC (3 h): 33% | MCV (3 h): 64.7 fL | Mono (3 h): 3.6% | Neu (3 h): 16% | PT (3 h): 12.3 s | Plat (3 h): 111.5 x10_4/uL | RBC (3 h): 625.8 x10_4/ul | Ret (3 h): 10% | WBC (3 h): 74.4 x10_2/uL | KIDNEY_L (3 h): 0.8 g | KIDNEY_R (3 h): 0.8 g | KIDNEY_TOTAL (3 h): 1.6 g | LIVER (3 h): 7.8 g | A/G (3 h): 0.9 | ALP (3 h): 1591.2 IU/L | ALT (3 h): 51 IU/L | AST (3 h): 76.8 IU/L | BUN (3 h): 8.6 mg/dL | CRE (3 h): 0.2 mg/dL | Ca (3 h): 11 mg/dL | Cl (3 h): 105.8 meq/L | DBIL (3 h): 0.004 mg/dL | GLC (3 h): 183 mg/dL | IP (3 h): 11.1 mg/dL | K (3 h): 3.9 meq/L | LDH (3 h): 80.8 IU/L | Na (3 h): 142.8 meq/L | PL (3 h): 155.6 mg/dL | RALB (3 h): 2.7 g/dL | TBIL (3 h): 0.044 mg/dL | TC (3 h): 87.4 mg/dL | TG (3 h): 42.6 mg/dL | TP (3 h): 5.7 g/dL | gamma-GTP (3 h): 1.2 IU/L | TERMINAL_BW (6 h): 190.5 g | APTT (6 h): 15.9 s | Bas (6 h): 0% | Eos (6 h): 0.8% | Fbg (6 h): 269.2 mg/dL | Hb (6 h): 13.4 g/dL | Ht (6 h): 39.7% | Lym (6 h): 78.8% | MCH (6 h): 21.4 pg | MCHC (6 h): 33.8% | MCV (6 h): 63.3 fL | Mono (6 h): 2.4% | Neu (6 h): 17.6% | PT (6 h): 12.4 s | Plat (6 h): 107.8 x10_4/uL | RBC (6 h): 627 x10_4/ul | Ret (6 h): 8.6% | WBC (6 h): 68.9 x10_2/uL | KIDNEY_L (6 h): 0.8 g | KIDNEY_R (6 h): 0.8 g | KIDNEY_TOTAL (6 h): 1.6 g | LIVER (6 h): 6.8 g | A/G (6 h): 0.9 | ALP (6 h): 1550 IU/L | ALT (6 h): 41.8 IU/L | AST (6 h): 75.4 IU/L | BUN (6 h): 9.4 mg/dL | CRE (6 h): 0.1 mg/dL | Ca (6 h): 10.8 mg/dL | Cl (6 h): 105.4 meq/L | DBIL (6 h): 0.014 mg/dL | GLC (6 h): 179.8 mg/dL | IP (6 h): 11 mg/dL | K (6 h): 3.8 meq/L | LDH (6 h): 64.4 IU/L | Na (6 h): 141.2 meq/L | PL (6 h): 137.8 mg/dL | RALB (6 h): 2.6 g/dL | TBIL (6 h): 0.054 mg/dL | TC (6 h): 78.4 mg/dL | TG (6 h): 41.4 mg/dL | TP (6 h): 5.6 g/dL | gamma-GTP (6 h): 1.6 IU/L | TERMINAL_BW (9 h): 190 g | APTT (9 h): 15.5 s | Bas (9 h): 0% | Eos (9 h): 0.6% | Fbg (9 h): 266.4 mg/dL | Hb (9 h): 13.5 g/dL | Ht (9 h): 40.2% | Lym (9 h): 76.8% | MCH (9 h): 21.5 pg | MCHC (9 h): 33.6% | MCV (9 h): 63.9 fL | Mono (9 h): 2.2% | Neu (9 h): 19.4% | PT (9 h): 12.3 s | Plat (9 h): 115.9 x10_4/uL | RBC (9 h): 629 x10_4/ul | Ret (9 h): 9.1% | WBC (9 h): 79.5 x10_2/uL | KIDNEY_L (9 h): 0.8 g | KIDNEY_R (9 h): 0.8 g | KIDNEY_TOTAL (9 h): 1.5 g | LIVER (9 h): 6.8 g | A/G (9 h): 0.9 | ALP (9 h): 1400.4 IU/L | ALT (9 h): 39.4 IU/L | AST (9 h): 70.8 IU/L | BUN (9 h): 13 mg/dL | CRE (9 h): 0.2 mg/dL | Ca (9 h): 10.8 mg/dL | Cl (9 h): 107 meq/L | DBIL (9 h): 0.02 mg/dL | GLC (9 h): 179.2 mg/dL | IP (9 h): 10.8 mg/dL | K (9 h): 4 meq/L | LDH (9 h): 78.2 IU/L | Na (9 h): 141.8 meq/L | PL (9 h): 147.8 mg/dL | RALB (9 h): 2.6 g/dL | TBIL (9 h): 0.064 mg/dL | TC (9 h): 88 mg/dL | TG (9 h): 29.4 mg/dL | TP (9 h): 5.5 g/dL | gamma-GTP (9 h): 1.4 IU/L | TERMINAL_BW (24 h): 193.2 g | APTT (24 h): 15.4 s | Bas (24 h): 0% | Eos (24 h): 0.8% | Fbg (24 h): 224.4 mg/dL | Hb (24 h): 12.9 g/dL | Ht (24 h): 38% | Lym (24 h): 79.6% | MCH (24 h): 21.5 pg | MCHC (24 h): 33.9% | MCV (24 h): 63.3 fL | Mono (24 h): 2.8% | Neu (24 h): 16.4% | PT (24 h): 12.9 s | Plat (24 h): 112.9 x10_4/uL | RBC (24 h): 600.8 x10_4/ul | Ret (24 h): 8.5% | WBC (24 h): 84.8 x10_2/uL | KIDNEY_L (24 h): 0.9 g | KIDNEY_R (24 h): 0.9 g | KIDNEY_TOTAL (24 h): 1.7 g | LIVER (24 h): 8.9 g | A/G (24 h): 0.9 | ALP (24 h): 1694.4 IU/L | ALT (24 h): 52.2 IU/L | AST (24 h): 79 IU/L | BUN (24 h): 12 mg/dL | CRE (24 h): 0.2 mg/dL | Ca (24 h): 10.4 mg/dL | Cl (24 h): 106 meq/L | DBIL (24 h): 0.018 mg/dL | GLC (24 h): 186 mg/dL | IP (24 h): 8.1 mg/dL | K (24 h): 4 meq/L | LDH (24 h): 103.2 IU/L | Na (24 h): 142.6 meq/L | PL (24 h): 146.8 mg/dL | RALB (24 h): 2.5 g/dL | TBIL (24 h): 0.062 mg/dL | TC (24 h): 76.8 mg/dL | TG (24 h): 100 mg/dL | TP (24 h): 5.4 g/dL | gamma-GTP (24 h): 1.4 IU/L
